In PMC5870139 (Journal of the American Chemical Society, 2018):

Target: T1, TagT (Bacillus subtilis, UniProt Q7WY78)
T1 sequence (Q7WY78 1-322): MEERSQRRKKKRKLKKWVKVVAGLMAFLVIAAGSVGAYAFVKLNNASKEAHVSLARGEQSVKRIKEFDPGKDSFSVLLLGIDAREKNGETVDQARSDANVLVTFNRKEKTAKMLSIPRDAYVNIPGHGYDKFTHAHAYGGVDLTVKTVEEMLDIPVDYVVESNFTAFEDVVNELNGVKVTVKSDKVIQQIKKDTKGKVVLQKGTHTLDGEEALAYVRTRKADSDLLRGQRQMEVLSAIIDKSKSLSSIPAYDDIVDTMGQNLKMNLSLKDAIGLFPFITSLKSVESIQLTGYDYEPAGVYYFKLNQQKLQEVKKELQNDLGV
Experiment: transfer of radiolabelled WTA precursor, PAGE autoradiography
Type: biochemical
Conditions: acceptor; co-substrate LIIA^WTA

Structure (SMILES) | transfer of radiolabelled WTA precursor, PAGE autoradiography
CC(=O)N[C@H]1[C@H](O[C@H]2[C@H](O)[C@@H](NC(C)=O)[C@H](O[C@H]3[C@H](O)[C@@H](NC(C)=O)C(O)O[C@@H]3CO)O[C@@H]2CO)O[C@H](CO)[C@@H](O[C@@H]2O[C@H](CO)[C@@H](O[C@@H]3O[C@H](CO)[C@@H](O)[C@H](O)[C@H]3NC(C)=O)[C@H](O)[C@H]2NC(C)=O)[C@@H]1O (some centres unmarked) [n=3, chitin oligosaccharide containing five GlcNAcs] | LcpB and TagT transferred WTA onto chitin oligosaccharides containing five or more sugars
CC(=O)N[C@H]1[C@H](O[C@H]2[C@H](O)[C@@H](NC(C)=O)C(O[C@H]3[C@H](O)[C@@H](NC(C)=O)C(O[C@H]4[C@H](O)[C@@H](NC(C)=O)C(O[C@H]5[C@H](O)[C@@H](NC(C)=O)C(O[C@H]6[C@H](O)[C@@H](NC(C)=O)C(O)O[C@@H]6CO)O[C@@H]5CO)O[C@@H]4CO)O[C@@H]3CO)O[C@@H]2CO)O[C@H](CO)[C@@H](O)[C@@H]1O (some centres unmarked) [n=4, chitin oligosaccharide containing six GlcNAcs] | LcpB and TagT transferred WTA onto chitin oligosaccharides containing five or more sugars
